# Legend:
# Experiment in all cases: Bacteriostatic activity, micro broth dilution MIC (CLSI)
# Type in all cases: cell-based
# Escherichia coli = details: 20 hours; for MIC50 / MIC90: clinical strains (carbapenem-resistant), CAMHB; for MIC50: read-out: Escherichia coli Clinical strain MIC50; for MIC90: read-out: Escherichia coli Clinical strain MIC90; for MIC: standard strain ATCC25922, CAMHB
# Description: (§1) The purpose of this test is to determine the bacteriostatic activity of the compounds of the present invention against a representative panel of strains (Gram-negative bacteria: […] ATCC 25922, Acinetobacter baumannii ATCC 19606; Gram-positive bacteria: Staphylococcus aureus ATCC29213). Bacteriostatic activity was determined by minimum inhibitory concentration (MIC), MIC50, MIC90. This test was entrusted to Shanghai Junj Lab Co., Ltd. Except for the test drugs, all other test materials were provided by Shanghai Junj Lab Co., Ltd.
# (§2) The tested bacteria were several strains of clinically isolated carbapenem-resistant Escherichia coli, several strains of carbapenem-resistant Acinetobacter baumannii, several strains of methicillin-resistant Staphylococcus aureus, and several strains of sensitive Staphylococcus aureus. Duplicate strains isolated from the same patient were eliminated. There were also three quality control strains Escherichia coli ATCC 25922, Acinetobacter baumannii ATCC 19606, and Staphylococcus aureus ATCC 29213. The activity test of each compound was carried out on one or more strains of each of the above test bacteria.
# (§3) According to the recommendations of relevant documents of the American Clinical and Laboratory Standards Institute (CLSI), the micro broth dilution method was used to determine the MIC of the compounds of the present invention against clinically isolated strains. The culture solution free of drug was used as the test bacteria positive control, the culture solution free of bacterial solution was used as the drug negative control, and the culture solution free of drug solution and bacterial solution was used as the blank control. • 4.1 Formulation of antibacterial drug: All the compounds of the present invention were dissolved in DMSO. The drug concentration range was 128 mg/L-0.06 mg/L. Specific method: The compounds of the present invention were successively diluted by 1:1 with DMSO to obtain an intermediate series with a range of 25600 mg/L-12.5 mg/L. 30 μL of solution from each tube of the intermediate series of each compound was added to a 3 mL/tube series of single broth tube, and mixed well to obtain an intermediate series with a range of 256 mg/L to 0.125 mg/L. The diluted series solution was added to the drug susceptibility plate line by line, 50 μL of solution per well. All ranges became investigated ranges after being mixed with an equal volume of bacterial solution: 128-0.06 mg/L. • 4.2 Culture medium: The drug susceptibility test used cation adjusted Mueller-Hinton broth (CAMHB). • 4.3 Amount of inoculum: The test bacteria cultured overnight were adjusted to 0.5 McFarland turbidity by the direct colony suspension method, and diluted 100 folds, the final inoculum amount was 10^5 CFU/mL. • 4.4 Culture conditions: The test bacteria were cultured at 35±2° C. for 20 hours in air. 5. Interpretation and Judgment of Results
# (§4) The drug susceptibility test results were interpretated by reference to CLSI 2019 edition M100 29th edition criteria.
# (§5) The results of drug susceptibility test were statistically analyzed by WHONET version 5.6 software.
# (§6) The culture solution free of bacterial solution was used as the drug negative control, and the culture solution free of drug solution and bacterial solution was used as the blank control, wherein no bacteria grew in both solutions.
# Staphylococcus aureus = details: 20 hours; for MIC50 / MIC90: clinical strains (methicillin-resistant and sensitive), CAMHB; for MIC50: read-out: Staphylococcus aureus Clinical strain MIC50; for MIC90: read-out: Staphylococcus aureus Clinical strain MIC90; for MIC: standard strain ATCC29213, CAMHB
# Description: as §1, §2, §3, §4, §5, §6
# Acinetobacter baumannii = details: 20 hours; for MIC50 / MIC90: clinical strains (carbapenem-resistant), CAMHB; for MIC50: read-out: Acinetobacter baumannii Clinical strain MIC50; for MIC90: read-out: Acinetobacter baumannii Clinical strain MIC90; for MIC: standard strain ATCC19606, CAMHB
# Description: as §1, §2, §3, §4, §5, §6
Structure (SMILES),MIC50 (Escherichia coli) [mg/L],MIC90 (Escherichia coli) [mg/L],MIC (Escherichia coli) [mg/L],MIC50 (Staphylococcus aureus) [mg/L],MIC90 (Staphylococcus aureus) [mg/L],MIC (Staphylococcus aureus) [mg/L],MIC50 (Acinetobacter baumannii) [mg/L],MIC90 (Acinetobacter baumannii) [mg/L],MIC (Acinetobacter baumannii) [mg/L]
"CC(C)c1cc(O)c2ncccc2c1[N+](=O)[O-] [Example 33, 8-hydroxy-6-isopropyl-5-nitroquinoline]",32,32,–,4,4,–,32,64,–
"O=[N+]([O-])c1ccc(O)c2nccc(C(F)(F)F)c12 [Example 26, 5-nitro-4-trifluoromethylquinolin-8-ol]",8,16,8,2,2,2,8,8,8
"N#Cc1ccnc2c(O)ccc([N+](=O)[O-])c12 [Example 27, 4-cyano-5-nitroquinolin-8-ol]",16,32,16,16,16,16,32,32,16
"O=[N+]([O-])c1cc(F)c(O)c2ncccc12 [Example 1, 7-fluoro-5-nitroquinolin-8-ol]",4,8,8,4,4,–,8,16,–

# Next, values leading:
MIC50 (Escherichia coli) [mg/L],MIC90 (Escherichia coli) [mg/L],MIC (Escherichia coli) [mg/L],MIC50 (Staphylococcus aureus) [mg/L],MIC90 (Staphylococcus aureus) [mg/L],MIC (Staphylococcus aureus) [mg/L],MIC50 (Acinetobacter baumannii) [mg/L],MIC90 (Acinetobacter baumannii) [mg/L],MIC (Acinetobacter baumannii) [mg/L],Structure (SMILES)
64,64,64,64,64,64,–,–,–,"O=[N+]([O-])c1c(F)cc(O)c2ncccc12 [Example 42, 8-hydroxy-6-fluoro-5-nitroquinoline]"
8,8,8,64,64,32,–,–,–,"CCN(CC)C(=O)c1cnc2c(O)ccc([N+](=O)[O-])c2c1 [Example 40, N,N-diethyl-8-hydroxy-5-nitroquinoline-3-carboxamide]"
16,16,–,4,4,–,8,32,–,"O=[N+]([O-])c1c(C2CC2)cc(O)c2ncccc12 [Example 34, 8-hydroxy-6-cyclopropyl-5-nitroquinoline]"
128,128,128,2,2,4,128,128,128,"O=C(OC1CCCCC1)c1cnc2c(O)ccc([N+](=O)[O-])c2c1 [Example 43, cyclohexyl 8-hydroxy-5-nitroquinoline-3-carboxylate]"

# Source: patent US12503440B2, “Nitroxoline derivative, preparation method therefor, and use thereof” (Jiangsu Yahong Meditech Co., Ltd., priority 2020, dated 2025)
